Results reported in patent US10633407B2, “14-membered ketolides and methods of their preparation and use” (President and Fellows of Harvard College, priority 2014, dated 2020).
In brackets after ≈: the same amount, converted by molar mass. Like-named read-outs stand apart in the source and are kept apart here.

Experiments:
Assay in all cases: CLSI broth dilution MIC determination
Type in all cases: cell-based
[1] = test system: A. baumannii ATCC 19606
[2] = test system: E. coli MP-9 ATCC25922:tolC; conditions: Escherichia coli, ATCC25922
Description: (§1) MIC data was collected for the novel macrolides that this platform has produced against over 21 unique strains of B. subtilis, E. coli, S. aureus, S. pneumoniae, and H. influenzae, including several multidrug-resistant strains, with a special focus on macrolide resistant mechanisms (vide supra). Azithromycin (Azithro) and Solithromycin (Solithro) were included as a control macrolides in many cases. CLSI standard procedures for broth dilution MIC determination were used. […] These genotypes can be constitutive or inducible.

[3] = test system: S. aureus ATCC 29213
Description: as §1

[4] = test system: E. coli MP-532 clinical-cErmB; conditions: Escherichia coli
Description: as §1

[5] = test system: E. coli MP-541 clinical; conditions: Escherichia coli, MP541CLINICAL, read-out: MIC
Description: as §1

[6] = test system: S. aureus MRSA: USA300
Description: as §1

[7] = test system: E. coli ATCC 25922
Description: as §1

[8] = test system: S. aureus MP-17 ATCCBAA-977 (BAA 977 iErm); conditions: Staphylococcus aureus; S. aureus MP-17, ATCCBAA-977, iErm; read-out: MIC
Description: as §1

[9] = test system: S. aureus (MRSA) MP-513 ST-228 cErm (Clinical-cErm); conditions: Staphylococcus aureus, read-out: MIC
Description: as §1

[10] = test system: A. baumannii MP-577 Clinical-AZT low; conditions: Acinetobacter baumannii, read-out: MIC
[11] = test system: P. aeruginosa MP-7 PAO1; conditions: Pseudomonas aeruginosa, read-out: MIC
[12] = test system: P. aeruginosa ATCC 27853
[13] = test system: A. baumannii MP-576 Clinical-MDR; conditions: Acinetobacter baumannii, read-out: MIC
[14] = test system: K. pneumoniae MP-546 Clinical-MDR; conditions: Klebsiella pneumoniae, read-out: MIC
[15] = test system: K. pneumoniae MP-548 clinical; conditions: Klebsiella pneumoniae, MP548CLINICAL, read-out: MIC
[16] = test system: P. aeruginosa MP-8 PAO1:mex (mex-oprM-deletion); conditions: Pseudomonas aeruginosa, PAO1
[17] = test system: K. pneumoniae ATCC 10031
[18] = test system: S. pneumoniae ATCC 49619; conditions: S. pneumoniae ATCC 49619; Gram-positive
Description: as §1

[19] = test system: E. coli NDM-1; conditions: Gram-negative
Description: as §1

[20] = test system: H. influenzae ATCC49247; conditions: Gram-negative
Description: as §1

[21] = test system: E. coli CTX-M-14; conditions: Gram-negative
Description: as §1

[22] = test system: S. aureus MRSA: USA100; conditions: S. aureus MRSA: USA100; Gram-positive
Description: as §1

[23] = test system: S. aureus erm A genotype; conditions: S. aureus erm A genotype; Gram-positive
Description: as §1

[24] = test system: K. pneumoniae TEM-10; conditions: Gram-negative
Description: as §1

[25] = test system: E. coli TEM-1; conditions: E. coli TEM-1; Gram-negative
Description: as §1

[26] = test system: S. pneumoniae mef A genotype (second strain so labelled); conditions: Gram-positive
Description: as §1

[27] = test system: S. aureus USA600, GISA; conditions: S. aureus USA600, GISA; Gram-positive
Description: as §1

[28] = test system: K. pneumoniae KPC-2; conditions: Gram-negative
[29] = test system: K. pneumoniae SHV-12; conditions: Gram-negative
[30] = test system: A. baumannii imipenem-resistant; conditions: Gram-negative
[31] = test system: S. pyogenes Macrolide-resistant; conditions: S. pyogenes Macrolide-resistant; Gram-positive
[32] = test system: P. aeruginosa HPA101-1477; conditions: Gram-negative
[33] = test system: A. baumannii IMP-4; conditions: Gram-negative
[34] = test system: E. faecalis Vancomycin-resistant; conditions: E. faecalis Vancomycin-resistant; Gram-positive
[35] = test system: A. baumannii chromosomal class C; conditions: Gram-negative
[36] = test system: H. influenzae Erythro >4, Azithro 1; conditions: H. influenzae Erythro >4, Azithro 1; Gram-negative
Description: as §1, with “Azithromycin (Azithro) and Solithromycin (Solithro) were included as a control macrolides in many cases.” left out

[37] = test system: E. faecalis ATCC 29212; conditions: E. faecalis ATCC 29212; Gram-positive
[38] = test system: S. pyogenes ATCC 19615; conditions: S. pyogenes ATCC 19615; Gram-positive
[39] = A. baumannii ATCC 19606, Gram-negative
[40] = S. aureus ATCC 29213, Gram-positive
[41] = S. aureus MRSA: USA300, Gram-positive
[42] = E. coli ATCC 25922, Gram-negative
[43] = P. aeruginosa ATCC 27853, Gram-negative
[44] = K. pneumoniae ATCC 10031, Gram-negative

SMILES | MIC [1, 39] [µg/mL] | MIC [18] [µg/mL] | MIC [3, 40] [µg/mL] | MIC [19] [µg/mL] | MIC [20] [µg/mL] | MIC [21] [µg/mL] | MIC [22] [µg/mL] | MIC [23] [µg/mL] | MIC [24] [µg/mL] | MIC [25] [µg/mL] | MIC [6, 41] [µg/mL] | MIC [7, 42] [µg/mL] | MIC [26] [µg/mL] | MIC [27] [µg/mL] | MIC [28] [µg/mL] | MIC [29] [µg/mL] | MIC [30] [µg/mL] | MIC [31] [µg/mL] | MIC [32] [µg/mL] | MIC [33] [µg/mL] | also measured
CC[C@H]1OC(=O)[C@@](C)(F)C(=O)[C@H](C)[C@@H](O[C@@H]2OC(C)CC(N(C)C)C2O)[C@](C)(OC)C[C@@H](C)C(=O)[C@H](C)[C@H]2N(CC#CCn3cc(-c4cc(N)nc(N)n4)nn3)C(=O)O[C@]12C (some centres unmarked) [FSM-22742] |  |  |  |  |  |  |  |  |  |  |  |  |  |  |  |  |  |  |  |  | MIC ([1]; Acinetobacter baumannii, ATCC19606, A. baumannii ATCC 19606 (MP-15), read-out: MIC): 16 µg/mL (≈ 18.6 µM); MIC [2]: 2 µg/mL (≈ 2.33 µM); MIC ([3]; Staphylococcus aureus, ATCC29213, S. aureus ATCC 29213 (MP-12), read-out: MIC): 0.5 µg/mL (≈ 0.583 µM); MIC [4]: > 64 µg/mL; MIC [5]: 16 µg/mL (≈ 18.6 µM); MIC ([6]; Staphylococcus aureus, S. aureus MRSA: USA300 (MP-549, msr(a)), read-out: MIC): 1 µg/mL (≈ 1.17 µM); MIC ([7]; Escherichia coli, ATCC25922, E. coli ATCC 25922 (MP-4), read-out: MIC): 16 µg/mL (≈ 18.6 µM); MIC [8]: 1 µg/mL (≈ 1.17 µM); MIC [9]: > 64 µg/mL; MIC [10]: 32 µg/mL (≈ 37.3 µM); MIC [11]: 64 µg/mL (≈ 74.6 µM); MIC ([12]; Pseudomonas aeruginosa, ATCC27853, P. aeruginosa ATCC 27853 (MP-3), read-out: MIC): 64 µg/mL (≈ 74.6 µM); MIC [13]: > 64 µg/mL; MIC [14]: > 64 µg/mL; MIC [15]: 64 µg/mL (≈ 74.6 µM); MIC [16]: 8 µg/mL (≈ 9.32 µM); MIC ([17]; Klebsiella pneumoniae, ATCC10031, K. pneumoniae ATCC 10031 (MP-14), read-out: MIC): 4 µg/mL (≈ 4.66 µM)
CC[C@H]1OC(=O)[C@H](C)C(=O)[C@H](C)[C@@H](O[C@@H]2OC(C)CC(N(C)C)C2O)[C@](C)(OC)C[C@@H](C)C(=O)[C@H](C)[C@H]2N(C/C=C/Cn3cnc(-c4ccccn4)c3)C(=O)O[C@]12C (some centres unmarked) [FSM-100421] | 16 (≈ 19.8 µM) | < 0.0312 | 0.0625 (≈ 0.0772 µM) | > 32 | 2 (≈ 2.47 µM) | > 32 | > 32 | > 32 | 32 (≈ 39.5 µM) | 32 (≈ 39.5 µM) | 2 (≈ 2.47 µM) | 32 (≈ 39.5 µM) | 0.0625 (≈ 0.0772 µM) | > 32 | > 32 | > 32 | 16 (≈ 19.8 µM) | < 0.0312 | > 32 | > 32 | MIC [12, 43]: > 32 µg/mL; MIC [34]: 32 µg/mL (≈ 39.5 µM); MIC [35]: 32 µg/mL (≈ 39.5 µM); MIC [36]: 1 µg/mL (≈ 1.23 µM); MIC [37]: < 0.0312 µg/mL; MIC [38]: < 0.0312 µg/mL; MIC [17, 44]: 4 µg/mL (≈ 4.94 µM)
CC[C@H]1OC(=O)[C@@](C)(F)C(=O)[C@H](C)[C@@H](O[C@@H]2OC(C)CC(N(C)C)C2O)[C@](C)(OC)C[C@@H](C)C(=O)[C@H](C)[C@H]2N(C/C=C/Cn3cc(-c4cccc(N)c4)nn3)C(=O)O[C@]12C (some centres unmarked) [FSM-11563] | 4 (≈ 4.74 µM) | ≤ 0.0312 | 0.0625 (≈ 0.0741 µM) | > 32 | 2 (≈ 2.37 µM) | > 32 | > 32 | > 32 | 32 (≈ 38 µM) | 16 (≈ 19 µM) | 0.125 (≈ 0.148 µM) | 16 (≈ 19 µM) | ≤ 0.0312 | > 32 | > 32 | > 32 | 4 (≈ 4.74 µM) | ≤ 0.0312 | > 32 | > 32 | MIC [12, 43]: 32 µg/mL (≈ 38 µM); MIC [34]: 4 µg/mL (≈ 4.74 µM); MIC [35]: 2 µg/mL (≈ 2.37 µM); MIC [36]: 4 µg/mL (≈ 4.74 µM); MIC [37]: ≤ 0.0312 µg/mL; MIC [38]: ≤ 0.0312 µg/mL; MIC [17, 44]: 4 µg/mL (≈ 4.74 µM)
CC[C@H]1OC(=O)[C@@](C)(F)C(=O)[C@H](C)[C@@H](O[C@@H]2OC(C)CC(N(C)C)C2O)[C@](C)(OC)C[C@@H](C)C(=O)[C@H](C)[C@H]2N(C/C=C/Cn3cc(-c4cccc(N)n4)nn3)C(=O)O[C@]12C (some centres unmarked) [FSM-100407] | 8 (≈ 9.48 µM) | < 0.0312 | < 0.0312 | > 32 | 1 (≈ 1.18 µM) | > 32 | > 32 | > 32 | 32 (≈ 37.9 µM) | > 32 | 0.5 (≈ 0.592 µM) | 16 (≈ 19 µM) | < 0.0312 | > 32 | > 32 | > 32 | 8 (≈ 9.48 µM) | < 0.0312 | > 32 | > 32 | MIC [12, 43]: 32 µg/mL (≈ 37.9 µM); MIC [34]: 16 µg/mL (≈ 19 µM); MIC [35]: 8 µg/mL (≈ 9.48 µM); MIC [36]: 1 µg/mL (≈ 1.18 µM); MIC [37]: < 0.0312 µg/mL; MIC [38]: < 0.0312 µg/mL; MIC [17, 44]: 4 µg/mL (≈ 4.74 µM)
